Assay results from ChEMBL document CHEMBL3526034 (Drug Metab Dispos, 2013).

What was measured:
BCRP (ABCG2) [1] = target: T1, BCRP (ABCG2) (Homo sapiens, UniProt Q9UNQ0); experiment: Activity at human BCRP expressed in MDCK2 cells assessed as basolateral to apical mass balance at 3 uM by liquid scintillation counting analysis in presence of 3 uM P-gp and BCRP inhibitor GF120918; assay type: ADME, cell-based, MDCK-II; details: with GF120918 (P-gp and BCRP inhibitor), read-out: Activity
T1 sequence (Q9UNQ0 whole entry): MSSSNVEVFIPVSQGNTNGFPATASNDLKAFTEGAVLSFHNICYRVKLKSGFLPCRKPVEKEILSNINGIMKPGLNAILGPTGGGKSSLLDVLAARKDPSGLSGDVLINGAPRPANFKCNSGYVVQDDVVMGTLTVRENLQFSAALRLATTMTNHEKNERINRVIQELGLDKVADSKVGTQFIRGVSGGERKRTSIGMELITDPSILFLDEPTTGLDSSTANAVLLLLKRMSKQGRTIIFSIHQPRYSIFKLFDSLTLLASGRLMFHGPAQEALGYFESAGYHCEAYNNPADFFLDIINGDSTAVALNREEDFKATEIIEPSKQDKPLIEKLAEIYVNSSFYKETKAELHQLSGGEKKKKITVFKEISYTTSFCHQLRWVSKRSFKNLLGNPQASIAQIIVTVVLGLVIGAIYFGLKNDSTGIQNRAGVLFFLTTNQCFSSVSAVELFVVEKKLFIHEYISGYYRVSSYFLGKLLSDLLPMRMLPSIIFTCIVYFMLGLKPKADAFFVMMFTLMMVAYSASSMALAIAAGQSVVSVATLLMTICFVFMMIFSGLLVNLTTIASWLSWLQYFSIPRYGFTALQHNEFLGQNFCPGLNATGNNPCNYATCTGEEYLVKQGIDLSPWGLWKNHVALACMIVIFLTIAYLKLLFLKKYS

Cytochrome P450 2D6 = Cytochrome P450 2D6 (Homo sapiens, UniProt P10635); experiment: Drug metabolism in supersomes expressing human recombinant CYP2D6 assessed as NADPH-fortified enzyme-mediated metabolite formation at 5 uM after 120 mins by radio HPLC analysis; assay type: ADME; details: 2 h
[2] = target: ATP-dependent translocase ABCB1 (Homo sapiens, UniProt P08183); experiment: Inhibition of human MDR1; assay type: ADME
Cytochrome P450 2A6 = Cytochrome P450 2A6 (Homo sapiens, UniProt P11509); experiment: Inhibition of CYP2A6 in human liver microsomes using coumarin as substrate preincubated for 20 mins with substrate prior to initiation of reaction with NADPH by HPLC analysis; assay type: ADME
[3] = target: T2, UDP-glucuronosyltransferase 1A1 (Homo sapiens, UniProt P22309); experiment: (§1) Drug metabolism in UDPGA-fortified human liver microsomes assessed as intrinsic clearance for UGT1A1-mediated DTG glucuronide M2 ((2S,3S,4S,5R,6S)-6-((4R,12aS)-9-(2,4-difluorobenzylcarbamoyl)-4-methyl-6,8-dioxo-3,4,6,8,12,12a-hexahydro-2H-[1,3]oxazino[3,2-d]pyrido[1,2-a]pyrazin-7-yloxy)-3,4,5-trihydroxytetrahydro-2H-pyran-2-carboxylic acid) formation after 120 mins measured per mg of protein by radio-HPLC analysis; assay type: ADME
T2 sequence (P22309 whole entry): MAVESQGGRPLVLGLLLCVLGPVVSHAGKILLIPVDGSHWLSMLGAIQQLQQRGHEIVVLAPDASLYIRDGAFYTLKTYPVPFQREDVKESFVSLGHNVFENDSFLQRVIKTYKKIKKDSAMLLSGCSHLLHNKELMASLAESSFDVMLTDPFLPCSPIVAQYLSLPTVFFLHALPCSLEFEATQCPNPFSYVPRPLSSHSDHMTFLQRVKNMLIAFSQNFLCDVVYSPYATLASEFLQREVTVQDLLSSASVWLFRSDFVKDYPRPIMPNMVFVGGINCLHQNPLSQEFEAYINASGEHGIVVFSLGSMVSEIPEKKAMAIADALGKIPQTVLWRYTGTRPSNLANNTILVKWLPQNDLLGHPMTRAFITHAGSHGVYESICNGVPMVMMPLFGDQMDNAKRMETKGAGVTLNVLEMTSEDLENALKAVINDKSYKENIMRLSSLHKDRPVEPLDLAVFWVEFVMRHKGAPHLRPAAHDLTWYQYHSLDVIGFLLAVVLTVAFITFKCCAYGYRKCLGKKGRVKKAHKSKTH

[4] = target: T2, UDP-glucuronosyltransferase 1A1; experiment: as §1, with “Drug metabolism assessed as” for “Drug metabolism in UDPGA-fortified human liver microsomes assessed as”, “clearance for human recombinant UGT1A1-mediated DTG” for “clearance for UGT1A1-mediated DTG”; assay type: ADME; details: recombinant enzyme
[5] = target: UDP-glucuronosyltransferase 2B15 (Homo sapiens, UniProt P54855); experiment: Drug metabolism assessed as UDPGA-fortified human recombinant UGT2B15-mediated DTG glucuronide metabolite ((2S,3S,4S,5R,6S)-6-((4R,12aS)-9-(2,4-difluorobenzylcarbamoyl)-4-methyl-6,8-dioxo-3,4,6,8,12,12a-hexahydro-2H-[1,3]oxazino[3,2-d]pyrido[1,2-a]pyrazin-7-yloxy)-3,4,5-trihydroxytetrahydro-2H-pyran-2-carboxylic acid) formation at 16 uM after 120 mins by radio-HPLC analysis; assay type: ADME; details: recombinant enzyme
BCRP (ABCG2) [6] = target: T1, BCRP (ABCG2); experiment: Activity at human BCRP expressed in MDCK2 cells assessed as apical to basolateral mass balance at 3 uM by liquid scintillation counting analysis in presence of 3 uM P-gp and BCRP inhibitor GF120918; assay type: ADME, cell-based, MDCK-II; details: with GF120918 (P-gp and BCRP inhibitor), read-out: Activity
[7] = target: Solute carrier family 22 member 1 (Homo sapiens, UniProt O15245); experiment: Inhibition of human OCT1 expressed in HEK293 cells using [14C]metformin as substrate at 10 uM after 10 mins by liquid scintillation counting analysis; assay type: ADME, cell-based; details: hek293, 10 min
Cytochrome P450 3A4 = Cytochrome P450 3A4 (Homo sapiens, UniProt P08684); experiment: Drug metabolism in supersomes expressing human recombinant CYP3A4 assessed as NADPH-fortified enzyme-mediated metabolite M3 ((4R,12aS)-N-((3,5-difluorophenyl)(hydroxy)methyl)-7-hydroxy-4-methyl-6,8-dioxo-3,4,6,8,12,12a-hexahydro-2H-[1,3]oxazino[3,2-d]pyrido[1,2-a]pyrazine-9-carboxamide) formation at 5 uM after 120 mins by radio-HPLC analysis in presence of selective CYP3A4 inhibitor azamulin; assay type: ADME
[8] = In vitro passive membrane permeability across dog MDCK2 cells at 3 uM using fasted state-simulated intestinal fluid buffer at pH 5.5 on donor side and 1% human serum albumin at pH 7.4 on receiver side by liquid scintillation counting analysis; assay type: ADME, cell-based, Canis lupus familiaris, MDCK-II; details: MDCK, read-out: permeability
[9] = Protein binding in plasma (unknown origin); assay type: ADME, cell-free; details: read-out: PPB
BCRP (ABCG2) [10] = target: T1, BCRP (ABCG2); experiment: Activity at human BCRP expressed in MDCK2 cells assessed as apical to basolateral mass balance at 3 uM by liquid scintillation counting analysis; assay type: ADME, cell-based, MDCK-II; details: read-out: Activity
BCRP (ABCG2) [11] = target: T1, BCRP (ABCG2); experiment: Activity at human BCRP expressed in MDCK2 cells assessed as basolateral to apical mass balance at 3 uM by liquid scintillation counting analysis; assay type: ADME, cell-based, MDCK-II; details: read-out: Activity
CYP2D6 = CYP2D6 (Homo sapiens, UniProt P10635); experiment: Inhibition of CYP2D6 in human liver microsomes using bufuralol as substrate at 100 uM preincubated for 20 mins with substrate prior to initiation of reaction with NADPH by HPLC analysis; assay type: ADME; details: probe bufuralol
[12] = target: T3, Broad substrate specificity ATP-binding cassette transporter ABCG2 (Homo sapiens, UniProt Q9UNQ0); experiment: Inhibition of BCRP (unknown origin) expressed in MDCK2 cells assessed as basolateral to apical transport of [14C]cimetidine at 100 uM after 90 mins by liquid scintillation counting analysis; assay type: ADME, cell-based; details: mdck-ii, 1.5 h
T3 sequence (Q9UNQ0 whole entry): T1 sequence (Q9UNQ0 whole entry)

Chain of Cytochrome P450 3A4 (P08684 whole entry): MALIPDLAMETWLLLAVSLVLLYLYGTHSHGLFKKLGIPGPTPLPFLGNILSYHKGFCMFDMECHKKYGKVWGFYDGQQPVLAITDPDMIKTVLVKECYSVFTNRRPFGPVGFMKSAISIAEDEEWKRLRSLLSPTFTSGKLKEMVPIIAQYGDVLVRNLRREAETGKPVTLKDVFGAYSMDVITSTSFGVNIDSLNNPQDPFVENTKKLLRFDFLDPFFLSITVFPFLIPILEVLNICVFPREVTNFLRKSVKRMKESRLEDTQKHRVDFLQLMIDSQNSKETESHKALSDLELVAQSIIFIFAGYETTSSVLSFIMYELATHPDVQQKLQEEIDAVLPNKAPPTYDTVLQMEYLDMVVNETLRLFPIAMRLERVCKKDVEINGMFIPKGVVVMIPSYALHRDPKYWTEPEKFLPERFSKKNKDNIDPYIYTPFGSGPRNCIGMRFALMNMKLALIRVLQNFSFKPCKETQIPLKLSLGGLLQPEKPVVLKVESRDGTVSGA
Chain of CYP2D6 (P10635 whole entry): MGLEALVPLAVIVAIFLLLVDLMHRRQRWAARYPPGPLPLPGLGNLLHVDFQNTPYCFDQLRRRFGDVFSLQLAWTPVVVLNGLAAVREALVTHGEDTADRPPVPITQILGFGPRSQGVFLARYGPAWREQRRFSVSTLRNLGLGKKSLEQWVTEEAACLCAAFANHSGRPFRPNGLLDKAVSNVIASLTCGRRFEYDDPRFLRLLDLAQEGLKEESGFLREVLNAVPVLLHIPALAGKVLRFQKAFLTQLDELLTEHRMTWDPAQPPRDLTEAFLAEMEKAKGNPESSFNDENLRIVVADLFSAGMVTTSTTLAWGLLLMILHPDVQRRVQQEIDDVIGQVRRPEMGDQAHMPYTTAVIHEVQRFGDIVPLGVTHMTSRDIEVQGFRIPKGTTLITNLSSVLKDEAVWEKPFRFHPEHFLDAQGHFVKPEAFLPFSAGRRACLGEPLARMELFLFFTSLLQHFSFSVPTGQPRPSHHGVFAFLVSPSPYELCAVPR
Chain of Cytochrome P450 2D6 (P10635 whole entry): as above
Chain of ATP-dependent translocase ABCB1 (P08183 whole entry): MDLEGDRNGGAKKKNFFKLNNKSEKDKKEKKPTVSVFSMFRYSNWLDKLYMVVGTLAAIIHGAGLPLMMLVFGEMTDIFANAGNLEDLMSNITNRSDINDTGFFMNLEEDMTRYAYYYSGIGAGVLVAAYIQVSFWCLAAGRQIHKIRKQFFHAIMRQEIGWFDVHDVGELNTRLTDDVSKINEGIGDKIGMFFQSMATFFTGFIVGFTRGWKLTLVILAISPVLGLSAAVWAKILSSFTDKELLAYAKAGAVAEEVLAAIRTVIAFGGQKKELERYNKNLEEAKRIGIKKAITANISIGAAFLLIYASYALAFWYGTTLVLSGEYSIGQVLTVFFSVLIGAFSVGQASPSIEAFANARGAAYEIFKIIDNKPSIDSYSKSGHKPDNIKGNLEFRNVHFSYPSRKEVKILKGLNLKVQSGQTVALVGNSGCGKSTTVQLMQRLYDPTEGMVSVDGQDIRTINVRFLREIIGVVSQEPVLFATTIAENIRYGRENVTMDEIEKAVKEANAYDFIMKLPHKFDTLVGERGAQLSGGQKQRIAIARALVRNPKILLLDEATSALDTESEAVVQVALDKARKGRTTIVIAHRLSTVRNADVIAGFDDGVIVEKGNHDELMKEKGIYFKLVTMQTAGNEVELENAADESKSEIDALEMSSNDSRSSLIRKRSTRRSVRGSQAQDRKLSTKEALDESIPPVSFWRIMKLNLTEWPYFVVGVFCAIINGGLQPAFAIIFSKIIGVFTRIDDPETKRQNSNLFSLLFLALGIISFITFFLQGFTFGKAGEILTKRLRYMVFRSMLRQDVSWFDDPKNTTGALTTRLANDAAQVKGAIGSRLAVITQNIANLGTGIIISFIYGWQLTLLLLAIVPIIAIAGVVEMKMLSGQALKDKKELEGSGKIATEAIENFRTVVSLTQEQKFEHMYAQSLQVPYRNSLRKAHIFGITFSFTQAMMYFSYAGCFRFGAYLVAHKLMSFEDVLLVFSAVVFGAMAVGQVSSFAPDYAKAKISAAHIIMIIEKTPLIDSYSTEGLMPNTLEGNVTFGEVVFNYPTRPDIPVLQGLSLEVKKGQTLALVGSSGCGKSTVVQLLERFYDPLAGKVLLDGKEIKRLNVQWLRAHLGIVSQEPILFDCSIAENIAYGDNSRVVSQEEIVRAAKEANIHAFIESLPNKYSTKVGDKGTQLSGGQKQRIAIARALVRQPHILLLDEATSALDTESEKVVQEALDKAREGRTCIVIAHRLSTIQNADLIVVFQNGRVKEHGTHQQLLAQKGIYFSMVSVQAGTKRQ
Chain of UDP-glucuronosyltransferase 2B15 (P54855 whole entry): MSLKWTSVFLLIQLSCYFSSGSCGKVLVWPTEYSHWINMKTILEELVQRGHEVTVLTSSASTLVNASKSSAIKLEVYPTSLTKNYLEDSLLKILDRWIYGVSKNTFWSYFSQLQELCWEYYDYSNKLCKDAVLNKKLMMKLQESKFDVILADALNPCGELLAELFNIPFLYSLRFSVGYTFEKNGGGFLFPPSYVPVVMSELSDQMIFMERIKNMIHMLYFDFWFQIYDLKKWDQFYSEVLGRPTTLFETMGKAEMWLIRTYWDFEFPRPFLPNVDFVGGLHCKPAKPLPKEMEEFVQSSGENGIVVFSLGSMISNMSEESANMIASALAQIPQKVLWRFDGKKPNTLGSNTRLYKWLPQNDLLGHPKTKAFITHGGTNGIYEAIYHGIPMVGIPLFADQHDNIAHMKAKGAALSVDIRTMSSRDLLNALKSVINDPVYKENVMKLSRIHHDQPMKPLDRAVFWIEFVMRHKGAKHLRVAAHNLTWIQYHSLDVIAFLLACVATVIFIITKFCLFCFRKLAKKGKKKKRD
Chain of Cytochrome P450 2A6 (P11509 whole entry): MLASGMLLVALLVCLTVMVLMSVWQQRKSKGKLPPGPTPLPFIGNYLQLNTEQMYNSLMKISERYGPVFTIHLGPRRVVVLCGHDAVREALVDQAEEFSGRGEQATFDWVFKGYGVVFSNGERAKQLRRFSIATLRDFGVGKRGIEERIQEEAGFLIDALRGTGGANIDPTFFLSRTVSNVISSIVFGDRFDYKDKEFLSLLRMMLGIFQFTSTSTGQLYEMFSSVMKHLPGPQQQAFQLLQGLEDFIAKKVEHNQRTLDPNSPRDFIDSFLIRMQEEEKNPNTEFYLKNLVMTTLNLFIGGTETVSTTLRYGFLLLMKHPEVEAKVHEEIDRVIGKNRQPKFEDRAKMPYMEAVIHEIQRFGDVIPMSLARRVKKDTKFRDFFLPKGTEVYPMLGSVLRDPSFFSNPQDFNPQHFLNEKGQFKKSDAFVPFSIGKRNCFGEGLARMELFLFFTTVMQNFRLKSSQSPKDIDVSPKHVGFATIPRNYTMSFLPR
Chain of Solute carrier family 22 member 1 (O15245 whole entry): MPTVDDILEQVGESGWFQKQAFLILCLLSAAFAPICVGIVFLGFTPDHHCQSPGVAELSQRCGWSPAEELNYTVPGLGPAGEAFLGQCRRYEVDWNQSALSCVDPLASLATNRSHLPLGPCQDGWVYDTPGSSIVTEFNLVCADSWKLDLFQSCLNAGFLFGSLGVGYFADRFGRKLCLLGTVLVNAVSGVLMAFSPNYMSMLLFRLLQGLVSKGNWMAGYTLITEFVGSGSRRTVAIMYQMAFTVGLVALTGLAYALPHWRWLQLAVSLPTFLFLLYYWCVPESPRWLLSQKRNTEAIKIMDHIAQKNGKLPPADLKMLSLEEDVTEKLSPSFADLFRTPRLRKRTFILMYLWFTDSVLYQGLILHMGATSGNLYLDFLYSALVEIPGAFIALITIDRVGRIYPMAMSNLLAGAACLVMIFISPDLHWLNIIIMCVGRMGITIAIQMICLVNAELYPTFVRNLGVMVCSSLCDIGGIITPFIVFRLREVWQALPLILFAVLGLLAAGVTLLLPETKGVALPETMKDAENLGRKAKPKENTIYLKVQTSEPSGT

With `C[C@@H]1CCO[C@H]2Cn3cc(C(=O)NCc4ccc(F)cc4F)c(=O)c(O)c3C(=O)N12` [DOLUTEGRAVIR] the recovery at 3 µM (BCRP (ABCG2) [1]) was 76%, the Drug metabolism (Cytochrome P450 2D6) was “metabolite_not_detected” and the IC50 [2] was over 90 µM. For the same compound, the IC50 (Cytochrome P450 2A6) was over 100 µM, the CLH [3] was 2.7 µL/min/g and the CL [4] was 3.2 µL/min/g. The Drug metabolism [5] was “metabolite_not_detected”, the recovery at 3 µM (BCRP (ABCG2) [6]) was 81% and the “inhibition (INH)” value [7] was 22%. For the same compound, the Drug metabolism (Cytochrome P450 3A4) was “metabolite_not_detected”, the Papp at 3 µM [8] was 26.5 ×10⁻⁶ cm/s and the fraction unbound [9] was under 0.01. It also gave a recovery at 3 µM (BCRP (ABCG2) [10]) of 81%, a recovery at 3 µM (BCRP (ABCG2) [11]) of 85% and an inhibition at 100 µM (CYP2D6) of 20%. For the same compound, the “inhibition (INH)” value [12] was 50%.
